Patent publication US5210075A, “Interleukin 6 antagonist peptides” (Tanabe Seiyaku Co., Ltd., priority 1990, dated 1993)

System: IL-6 mediated proliferation of B9.9 cells
Assay: IL-6-dependent B9.9 cell proliferation assay
Format: cell-based, mouse
Conditions: peptide concentration = 250 μM
Source text: Peptides according to the invention were synthesized by the solid phase peptide synthesis method (Merrifield, J. Am. Chem. Soc. 85:2149, 1963). The amino acid numbering of peptides derived from the IL-6 receptor (IL-6R) sequence is based on the published sequence of Yamasaki, et al, (Science 241:825, 1988), and numbering of peptides derived from the IL-6 sequence is based on the sequence of IL-6 as published by Hirano, et al. (Nature 324:73, 1986). The numbering refers to the position of the amino acids in the mature protein after excision of the signal sequence. Activity was established in an IL-6-dependent B9.9 cell proliferation assay as described hereunder.
IL-6 antagonist activity of the subject peptides was measured using the IL-6 dependent B9.9 hybridoma cell line as described in Brakenhoff et al., J. Immunol. […]
1×10^4 cells were cultured in presence of 4-fold serial dilutions (1:16 to 1:65,536) of F-IL-6 in RPMI supplemented with 10% fetal calf serum, 2 mM L-glutamine, and 5 ×10^-5 M 2-mercaptoethanol in flat bottom microtiter plates. After 2 days the cells were incubated for 4 hours with 3-(4,5-dimethylthiazol-2-yl)-diphenyl tetrazolium bromide (MTT) and the absorbance was measured at 570-650 nm as described in Mosmann, J. Immunol. […] One unit of IL-6 was defined as the amount of IL-6 required to obtain half maximal proliferation and was calculated by probit analysis. […]

Ac-GQLRAQEEFGQGE-NH2 [Ac-GQLRAQEEFGQGE-NH2]
Percent Inhibition of IL-6 mediated proliferation of B9.9 cells: 92 ± 6%

GAAAENNNLNLP
Percent Inhibition of IL-6 mediated proliferation of B9.9 cells: 29 ± 19%
